# Results published in US12606541B2, “PPARg modulators and methods of use” (Eisai R&D Management Co., Ltd., priority 2020, dated 2026).
# Where two headings read alike, the source gives them in different places.
# What was measured:
# [1] = target: T1, His6-TEV-PPARγ-(234-505) (Homo sapiens, UniProt P37231); assay: TR-FRET Assay to Measure Co-R Peptide Recruitment to PPARγ; format: biochemical; details: Co-R peptide (SMRT-ID2) recruitment, top final concentration 20 μM, read-out: TR-FRET i-Ag, AC50
# T1 construct: The His6-TEV-PPARγ-(234-505) protein for assay was expressed and purified; TEV cleavage site (N); made in house
# T1 sequence (P37231 234-505): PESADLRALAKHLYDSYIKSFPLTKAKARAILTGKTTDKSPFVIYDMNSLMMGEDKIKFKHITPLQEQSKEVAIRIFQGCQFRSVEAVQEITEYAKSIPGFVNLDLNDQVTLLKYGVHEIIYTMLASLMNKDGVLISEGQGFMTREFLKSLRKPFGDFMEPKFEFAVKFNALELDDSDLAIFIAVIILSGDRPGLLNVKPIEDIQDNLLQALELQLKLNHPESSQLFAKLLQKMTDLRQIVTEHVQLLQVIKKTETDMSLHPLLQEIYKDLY
# In short: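 Corepressor recruitment is measured by adding terbium-labeled anti-His antibody and FITC SMRT-ID2 peptide, at 5 and 200 nM final, after a 20-minute room-temperature protein–compound incubation. After one further hour, signal is converted to percent response between DMSO and 500 nM T0070907 wells.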
# [2] = tested on: UM-UC-9 engineered cells; assay: Cell proliferation / short-term viability assay, CellTiter-Glo 144 h; format: cell-based, human; details: read-out: CTGlo 144 h UMUC9.5, G150
# In short: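 Viability read by CellTiter-Glo 2.0 luminescence at day 7 versus DMSO-vehicle wells and a T0 plate measured on day 0. Cells: UM-UC-9 engineered assay-ready stocks, 500 cells/well in high-glucose DMEM with 10% FBS, 37° C, 5% CO2.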
SMILES,AC50 [1] [µM],"IC50 ([2]; Homo sapiens, UM-UC-9, 144 h) [µM]",IC50 [2] [µM],AC50 ([1]; listed as 110b) [µM],IC50 ([2]; listed as 110b) [µM]
"COc1cc(-c2cc(C(=O)N3[C@@H]4CC[C@H]3C[C@H](C(=O)NC3CCC5(CCO5)CC3)C4)n[nH]2)c(F)cn1 (mixture of isomers) [Example 297, (1R,3S,5S)-8-[5-(5-fluoro-2-methoxypyridin-4-yl)-1H-pyrazole-3-carbonyl]-N-[1-oxaspiro[3.5]nonan-7-yl]-8-azabicyclo[3.2.1]octane-3-carboxamide]",0.12,0.383,,,
"CC[C@H]1CC[C@@H](NC(=O)C2CCN(C(=O)c3cc(-c4ccnc(OC)c4)[nH]n3)CC2)CC1 (single isomer, unassigned) [Example 108-A, N-((1s,4s)-4-ethylcyclohexyl)-1-(5-(2-methoxypyridin-4-yl)-1H-pyrazole-3-carbonyl)piperidine-4-carboxamide]",0.16,0.674,,,
"COc1cc(-c2cc(C(=O)N3CCC(C(=O)NC4CCN(C5COC5)C4)CC34CC4)n[nH]2)c(F)cn1 (mixture of isomers) [Example 396, (S)-4-(5-(5-fluoro-2-methoxypyridin-4-yl)-1H-pyrazole-3-carbonyl)-N—((R)-1-(oxetan-3-yl)pyrrolidin-3-yl)-4-azaspiro[2.5]octane-7-carboxamide and (S)-4-(5-(5-fluoro-2-methoxypyridin-4-yl)-1H-pyrazole-3-carbonyl)-N—((S)-1-(oxetan-3-yl)pyrrolidin-3-yl)-4-azaspiro[2.5]octane-7-carboxamide]",0.0977,,0.293,,
"COc1cc(-c2cc(C(=O)N3CCC(C(=O)NCc4cccc(C(F)(F)F)n4)CC3)n[nH]2)c(Cl)cn1 [Example 129, 1-(5-(5-chloro-2-methoxypyridin-4-yl)-1H-pyrazole-3-carbonyl)-N-((6 (trifluoromethyl)pyridin-2-yl)methyl)piperidine-4-carboxamide]",0.273,1.02,,,
"COc1cc(-c2cc(C(=O)N3CCC(C(=O)NCC4CCc5[nH]nc(C)c5C4)CC34CC4)n[nH]2)c(F)cn1 (mixture of isomers) [Example 382, (S)-4-(5-(5-fluoro-2-methoxypyridin-4-yl)-1H-pyrazole-3-carbonyl)-N—(((S)-3-methyl-4,5,6,7-tetrahydro-1H-indazol-5-yl)methyl)-4-azaspiro[2.5]octane-7-carboxamide and (S)-4-(5-(5-fluoro-2-methoxypyridin-4-yl)-1H-pyrazole-3-carbonyl)-N—(((R)-3-methyl-4,5,6,7-tetrahydro-1H-indazol-5-yl)methyl)-4-azaspiro[2.5]octane-7-carboxamide]",0.004,,0.01,,
"COc1cc(-c2cc(C(=O)N3[C@@H]4CC[C@H]3C[C@H](C(=O)NC3CCC5(CC3)OCCC5(F)F)C4)n[nH]2)c(F)cn1 (mixture of isomers) [Example 320, (1R,3s,5S)—N-(4,4-difluoro-1-oxaspiro[4.5]decan-8-yl)-8-(5-(5-fluoro-2-methoxypyridin-4-yl)-1H-pyrazole-3-carbonyl)-8-azabicyclo[3.2.1]octane-3-carboxamide]",0.0104,0.0295,,,
"COc1cc(-c2[nH]nc(C(=O)N3CCC(C(=O)NC4CCC(C)CC4)CC3)c2Cl)ccn1 (single isomer, unassigned) [Example 110-B]",,,,0.217,0.697
"COc1cc(-c2cc(C(=O)N3CCC(C(=O)NC4CN(CC(C)(C)F)CC4(F)F)CC34CC4)n[nH]2)c(F)cn1 (mixture of isomers) [Example 379, (S)—N—((S)-4,4-difluoro-1-(2-fluoro-2-methylpropyl)pyrrolidin-3-yl)-4-(5-(5-fluoro-2-methoxypyridin-4-yl)-1H-pyrazole-3-carbonyl)-4-azaspiro[2.5]octane-7-carboxamide and (S)—N—((R)-4,4-difluoro-1-(2-fluoro-2-methylpropyl)pyrrolidin-3-yl)-4-(5-(5-fluoro-2-methoxypyridin-4-yl)-1H-pyrazole-3-carbonyl)-4-azaspiro[2.5]octane-7-carboxamide]",0.0122,,0.011,,
"COc1cc(-c2cc(C(=O)N3[C@@H]4CC[C@H]3C[C@H](C(=O)NC3CCC(O)(C(F)(F)CO)CC3)C4)n[nH]2)c(F)cn1 (stereo partly drawn) [Example 436, (1R,3s,5S)—N-(4-(1,1-difluoro-2-hydroxyethyl)-4-hydroxycyclohexyl)-8-(5-(5-fluoro-2-methoxypyridin-4-yl)-1H-pyrazole-3-carbonyl)-8-azabicyclo[3.2.1]octane-3-carboxamide]",0.132,> 10,,,
"CCc1cc(-c2cc(C(=O)N3CCC(C(=O)NCc4ncc(F)cc4Cl)CC34CC4)n[nH]2)c(F)cn1 (single isomer, unassigned) [Example 483-A]",0.216,,1.52,,
"COc1cc(-c2cc(C(=O)N3CCC(C(=O)NCc4ncc(N5CC6CC5CN6)cc4Cl)CC34CC4)n[nH]2)c(F)cn1 (mixture of isomers) [Example 462, (S)—N-((5-((1R,4R)-2,5-diazabicyclo[2.2.1]heptan-2-yl)-3-chloropyridin-2-yl)methyl)-4-(3-(5-fluoro-2-methoxypyridin-4-yl)-1H-pyrazole-5-carbonyl)-4-azaspiro[2.5]octane-7-carboxamide and (S)—N-((5-((1S,4S)-2,5-diazabicyclo[2.2.1]heptan-2-yl)-3-chloropyridin-2-yl)methyl)-4-(3-(5-fluoro-2-methoxypyridin-4-yl)-1H-pyrazole-5-carbonyl)-4-azaspiro[2.5]octane-7-carboxamide]",0.0141,,0.513,,

# Now from value to compound, other results behind:
AC50 [1] [µM],SMILES,"IC50 ([2]; Homo sapiens, UM-UC-9, 144 h) [µM]",IC50 [2] [µM],AC50 ([1]; listed as 110b) [µM],IC50 ([2]; listed as 110b) [µM]
0.0877,"COc1cc(-c2cc(C(=O)N3CCC(C(=O)NC4c5ccccc5OC4C)CC3)n[nH]2)c(Cl)cn1 (centres unmarked) [Example 265, 1-(5-(5-chloro-2-methoxypyridin-4-yl)-1H-pyrazole-3-carbonyl)-N-(2-methyl-2,3-dihydrobenzofuran-3-yl)piperidine-4-carboxamide]",0.458,,,
0.483,"COc1cc(-c2cc(C(=O)N3CCC(C(=O)NCC4CC(C)(C)O4)CC3)n[nH]2)c(Cl)cn1 (racemic) [Example 135, 1-(5-(5-chloro-2-methoxypyridin-4-yl)-1H-pyrazole-3-carbonyl)-N-((4,4-dimethyloxetan-2-yl)methyl)piperidine-4-carboxamide]",2.65,,,
0.808,"COc1cc(-c2cc(C(=O)N3CCC(C(=O)NCc4cccc5cc[nH]c45)CC3)n[nH]2)c(Cl)cn1 [Example 194, N-((1H-indol-7-yl)methyl)-1-(5-(5-chloro-2-methoxypyridin-4-yl)-1H-pyrazole-3-carbonyl)piperidine-4-carboxamide]",0.484,,,
0.18,"COc1cc(-c2cc(C(=O)N3CC[C@H](C(=O)NCC4(O)COC4)CC34CC4)[nH]n2)c(F)cn1 [Example 463, (S)-4-(3-(5-fluoro-2-methoxypyridin-4-yl)-1H-pyrazole-5-carbonyl)-N-((3-hydroxyoxetan-3-yl)methyl)-4-azaspiro[2.5]octane-7-carboxamide]",5.2,,,
0.61,"COc1cc(-c2cc(C(=O)N3CCC(C(=O)NC4CCN(c5ccccc5)CC4)CC3)n[nH]2)c(Cl)cn1 [Example 196, 1-(5-(5-chloro-2-methoxypyridin-4-yl)-1H-pyrazole-3-carbonyl)-N-(1-phenylpiperidin-4-yl)piperidine-4-carboxamide]",1.03,,,
0.0014,"O=C(NC1CCC(O)(C(F)(F)F)CC1)C1CCN(C(=O)c2cc(-c3cc(Cl)ncc3F)[nH]n2)C2(CC2)C1 (single isomer, unassigned) [Example 529-B]",,0.0092,,
1.12,"COc1cc(-c2cc(C(=O)N3CCC(C(=O)NCC4CCn5c(C)nnc5C4)CC34CC4)n[nH]2)c(F)cn1 (single isomer, unassigned) [Example 346-B]",,2.41,,
0.256,"COc1cc(-c2cc(C(=O)N3CC[C@H](C(=O)NC4CCC5(CCCN5CC(C)(F)F)CC4)CC34CC4)n[nH]2)c(F)cn1 (stereo partly drawn) [Example 351, (S)—N-(1-(2,2-difluoropropyl)-1-azaspiro[4.5]decan-8-yl)-4-(5-(5-fluoro-2-methoxypyridin-4-yl)-1H-pyrazole-3-carbonyl)-41-azaspiro[2.5]octane-7-carboxamide]",0.45,,,
0.336,COc1cc(-c2cc(C(=O)N3CCC(C(=O)NC4CCC(O)(C(F)(F)F)C(O)C4)CC34CC4)n[nH]2)c(F)cn1 (mixture of isomers) [Example 474-A],,6.21,,
0.016,"COc1cc(-c2cc(C(=O)N3CCC(C(=O)NC4CCC(O)(C(F)(F)F)CC4)CC3(C)C)n[nH]2)c(F)cn1 (single isomer, unassigned) [Example 407-A]",,0.014,,
0.0174,"COc1cc(-c2cc(C(=O)N3CC[C@H](C(=O)NCc4ncc(C(F)(F)F)[nH]4)CC34CC4)[nH]n2)c(F)cn1 [Example 476, (S)-4-(3-(5-fluoro-2-methoxypyridin-4-yl)-1H-pyrazole-5-carbonyl)-N-((5-(trifluoromethyl)-1H-imidazol-2-yl)methyl)-4-azaspiro[2.5]octane-7-carboxamide]",0.406,,,
